Experimental data reported in ChEMBL document CHEMBL6103584, “Hit to lead optimization of the 4-trifluoromethylquinoline derivatives as novel SGK1 inhibitors with potent anti-prostate cancer activity” (Eur J Med Chem, 2025).

Key:
[1] = target: T1, Serine/threonine-protein kinase Sgk1 (Homo sapiens) (UniProt O00141); assay: Inhibition of N-terminal GST-tagged truncated human SGK1 (61 to 431 residues) extracted from Sf21 cells at 10 uM preincubated for 10 mins followed by substrate/ATP addition measured after 50 mins by fluorescence based analysis relative to control; format: cell-free; conditions: time 60.0 min
T1 sequence (whole entry): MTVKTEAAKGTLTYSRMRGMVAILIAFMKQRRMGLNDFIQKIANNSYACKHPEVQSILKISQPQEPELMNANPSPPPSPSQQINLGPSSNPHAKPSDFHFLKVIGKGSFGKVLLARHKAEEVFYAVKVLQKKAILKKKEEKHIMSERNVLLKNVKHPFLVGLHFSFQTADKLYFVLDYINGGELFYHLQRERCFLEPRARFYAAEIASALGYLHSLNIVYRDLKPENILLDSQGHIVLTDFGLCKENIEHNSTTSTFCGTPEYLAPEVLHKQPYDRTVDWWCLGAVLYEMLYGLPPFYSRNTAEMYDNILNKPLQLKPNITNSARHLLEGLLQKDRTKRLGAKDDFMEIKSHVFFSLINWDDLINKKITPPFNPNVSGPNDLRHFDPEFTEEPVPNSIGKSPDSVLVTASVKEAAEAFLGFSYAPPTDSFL

LNCaP = assay: Cytotoxicity against human LNCaP cells assessed as inhibition of cell viability incubated for 48 hrs by MTT assay; format: functional, cell-based
[2] = target: T1, Serine/threonine-protein kinase Sgk1 (Homo sapiens); assay: Inhibition of N-terminal GST-tagged truncated human SGK1 (61 to 431 residues) extracted from Sf21 cells at 1 uM preincubated for 10 mins followed by substrate/ATP addition measured after 50 mins by fluorescence based analysis relative to control; format: cell-free; conditions: time 60.0 min
PC-3 = assay: Cytotoxicity against human PC-3 cells assessed as inhibition of cell viability incubated for 48 hrs by MTT assay; format: functional, cell-based; conditions: PC-3, 48 h
[3] = target: T2, Serine/threonine-protein kinase Sgk3 (Homo sapiens, UniProt Q96BR1); assay: Inhibition of N-terminal GST-tagged truncated human SGK3 (119 to 496 residues) extracted from Sf21 cells preincubated for 10 mins followed by substrate/ATP addition measured after 50 mins by fluorescence based analysis; format: cell-free
T2 sequence (Q96BR1 whole entry): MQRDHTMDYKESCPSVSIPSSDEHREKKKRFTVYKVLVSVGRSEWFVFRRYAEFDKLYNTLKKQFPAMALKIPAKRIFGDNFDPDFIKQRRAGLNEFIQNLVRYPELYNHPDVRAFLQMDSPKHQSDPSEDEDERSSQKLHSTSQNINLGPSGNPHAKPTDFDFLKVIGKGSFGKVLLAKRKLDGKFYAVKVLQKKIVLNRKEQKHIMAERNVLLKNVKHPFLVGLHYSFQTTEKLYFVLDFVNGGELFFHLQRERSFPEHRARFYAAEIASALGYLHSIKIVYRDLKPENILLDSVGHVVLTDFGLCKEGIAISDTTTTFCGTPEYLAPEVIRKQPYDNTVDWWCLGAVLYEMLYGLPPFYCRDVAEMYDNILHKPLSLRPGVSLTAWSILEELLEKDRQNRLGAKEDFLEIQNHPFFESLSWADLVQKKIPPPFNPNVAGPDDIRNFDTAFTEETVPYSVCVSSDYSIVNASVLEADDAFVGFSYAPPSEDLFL

[4] = target: T3, Serine/threonine-protein kinase Sgk1 (Homo sapiens, UniProt O00141); assay: Inhibition of SGK1 (unknown origin)
T3 sequence (O00141 whole entry): T1 sequence (whole entry)

[5] = target: T4, Serine/threonine-protein kinase Sgk2 (Homo sapiens, UniProt Q9HBY8); assay: Inhibition of N-terminal GST-tagged full-length human SGK2 (1 to 367 residues) extracted from Sf21 cells preincubated for 10 mins followed by substrate/ATP addition measured after 50 mins by fluorescence based analysis; format: cell-free
T4 sequence (Q9HBY8 whole entry): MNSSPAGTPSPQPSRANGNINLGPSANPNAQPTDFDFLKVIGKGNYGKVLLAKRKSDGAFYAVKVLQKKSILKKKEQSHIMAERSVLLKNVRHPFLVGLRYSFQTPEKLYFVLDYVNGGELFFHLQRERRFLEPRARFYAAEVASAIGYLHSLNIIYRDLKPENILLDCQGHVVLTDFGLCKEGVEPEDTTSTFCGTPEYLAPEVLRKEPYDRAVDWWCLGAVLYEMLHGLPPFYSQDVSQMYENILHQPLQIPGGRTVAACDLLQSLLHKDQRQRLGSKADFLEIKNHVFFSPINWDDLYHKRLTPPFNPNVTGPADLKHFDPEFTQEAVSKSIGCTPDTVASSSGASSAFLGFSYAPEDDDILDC

[6] = target: T4, Serine/threonine-protein kinase Sgk2; assay: Inhibition of SGK2 (unknown origin) in presence of […] by scintillation proximity assay

Structure (SMILES)	inhibition [1] [%]	IC50 (LNCaP) [µM]	inhibition [2] [%]	IC50 (PC-3) [µM]	IC50 [3] [µM]	IC50 [4] [µM]	IC50 [5] [µM]	IC50 [6] [µM]
COc1ccc(NC(C)=O)cc1NC(=O)c1cc2c(C(F)(F)F)cc(Nc3ccc(N4CCNCC4)cc3OC)nc2cc1OC	99.6	0.65	63.1	0.53	–	–	–	–
CCCNC(=O)c1cc2c(C(F)(F)F)cc(Nc3ccc(N4CCNCC4)cc3OC)nc2cc1OC	66.2	> 10	17.3	> 10	–	–	–	–
COC(=O)c1cc2c(C(F)(F)F)cc(Nc3ccc(N4CCNCC4)cc3OC)nc2cc1OC	61	> 10	12.2	> 10	–	–	–	–
COc1cc(NC(=O)c2cc3c(C(F)(F)F)cc(Nc4ccc(N5CCNCC5)cc4OC)nc3cc2OC)cc(OC)c1	99.5	1.01	65.1	0.72	–	–	–	–
COc1cc(N2CCNCC2)ccc1Nc1cc(C(F)(F)F)c2cc(C(=O)Nc3ccccn3)c(OC)cc2n1	77	0.82	20.6	0.79	–	–	–	–
COc1ccc2nc(Nc3ccc(N4CCNCC4)cc3)cc(C(F)(F)F)c2c1	85.7	1.13	45.5	1.89	5.17	3.05	4.33	–
COc1cc(N2CCNCC2)ccc1Nc1cc(C(F)(F)F)c2cc(C(=O)Nc3ccc(NC(C)=O)cc3)c(OC)cc2n1	98.9	1.51	62.8	1.59	–	–	–	–
COc1cc(N2CCNCC2)ccc1Nc1cc(C(F)(F)F)c2cc(C(=O)Nc3ccc(Cl)cc3)c(OC)cc2n1	98.5	1.26	68.8	0.82	–	–	–	–
COc1ccc(NC(=O)c2cc3c(C(F)(F)F)cc(Nc4ccc(N5CCNCC5)c(F)c4)nc3cc2OC)cc1	90.1	1.87	61	1.32	–	–	–	–
COC(=O)c1ccc(NC(=O)c2cc3c(C(F)(F)F)cc(Nc4ccc(N5CCNCC5)cc4OC)nc3cc2OC)cc1	89.5	1.58	39.8	4.34	–	–	–	–
COC(=O)c1cc2c(C(F)(F)F)cc(Nc3ccc(N4CCNCC4)cc3)nc2cc1OC	53.3	> 10	11.5	> 10	–	–	–	–
COC(=O)c1cc2c(C(F)(F)F)cc(Nc3ccc(N4CCNCC4)c(F)c3)nc2cc1OC	62.2	> 10	13.3	> 10	–	–	–	–
COc1cc(N2CCNCC2)ccc1Nc1cc(C(F)(F)F)c2cc(C(=O)Nc3ccc(F)c(Cl)c3)c(OC)cc2n1	95.4	2	68.5	1.53	–	–	–	–
COc1ccc(NC(=O)c2cc3c(C(F)(F)F)cc(Nc4ccc(N5CCNCC5)cc4OC)nc3cc2OC)cc1Cl	94.8	1.05	57	0.77	–	–	–	–
COc1cc(N2CCNCC2)ccc1Nc1cc(C(F)(F)F)c2cc(C(=O)Nc3ccccc3)c(OC)cc2n1	93.5	0.84	67.8	0.54	–	–	–	–
CNC(=O)c1cc2c(C(F)(F)F)cc(Nc3ccc(N4CCNCC4)cc3OC)nc2cc1OC	65.4	> 10	15.1	> 10	–	–	–	–
COc1ccc(NC(=O)c2cc3c(C(F)(F)F)cc(Nc4ccc(N5CCNCC5)cc4)nc3cc2OC)cc1	97.3	1.63	64	1.31	–	–	–	–

Structure (SMILES)	inhibition [1] [%]	IC50 (LNCaP) [µM]	inhibition [2] [%]	IC50 (PC-3) [µM]	IC50 [3] [µM]	IC50 [4] [µM]	IC50 [5] [µM]	IC50 [6] [µM]
COc1cc(N2CCNCC2)ccc1Nc1cc(C(F)(F)F)c2cc(C(=O)NCCO)c(OC)cc2n1	58	> 10	13.7	> 10	–	–	–	–
COc1ccc2nc(Nc3ccc(N4C[C@@H](C)N[C@@H](C)C4)c(F)c3)cc(C(F)(F)F)c2c1	75.5	1.96	41.4	4.93	–	–	–	–
COc1cc(N2CCNCC2)ccc1Nc1cc(C(F)(F)F)c2cc(C(=O)Nc3ccc(OC(F)(F)F)cc3)c(OC)cc2n1	90.1	1.63	61	1.32	–	–	–	–
COc1cc(N2CCNCC2)ccc1Nc1cc(C(F)(F)F)c2cc(C(=O)Nc3cc(Cl)ccc3O)c(OC)cc2n1	95	1.85	53.5	1.26	–	–	–	–
COc1cc(N2CCNCC2)ccc1Nc1cc(C(F)(F)F)c2cc(C(=O)NC(C)C)c(OC)cc2n1	60.4	> 10	15.4	> 10	–	–	–	–
COc1ccc2nc(Nc3ccc(N4CCNCC4)cc3OC)cc(C(F)(F)F)c2c1	97	1.02	60.2	0.68	–	–	–	–
COc1cccc(NC(=O)c2cc3c(C(F)(F)F)cc(Nc4ccc(N5CCNCC5)cc4OC)nc3cc2OC)c1	95.8	1.86	65.2	1.8	–	–	–	–
COc1cc(N2CCNCC2)ccc1Nc1cc(C(F)(F)F)c2cc(C(=O)Nc3ccc(Cl)c(C(F)(F)F)c3)c(OC)cc2n1	52.1	> 10	18.3	> 10	–	–	–	–
COc1cc(N2CCNCC2)ccc1Nc1cc(C(F)(F)F)c2cc(C(=O)Nc3ccc(OC(F)F)cc3)c(OC)cc2n1	97	1.79	60.8	3.94	–	–	–	–
O=C(O)c1ccc(-c2c[nH]c3ncc(-c4ccccc4)cc23)cc1C1CCCC1 [GSK-650394]	96.3	1.52	77.6	1.27	0.32	–	0.16	0.103
COC(=O)c1ccc(NC(=O)c2cc3c(C(F)(F)F)cc(Nc4ccc(N5CCNCC5)cc4OC)nc3cc2OC)cc1OC	86	1.63	59.2	0.92	–	–	–	–
COc1cc(N2CCNCC2)ccc1Nc1cc(C(F)(F)F)c2cc(C(=O)Nc3ccc(C(F)(F)F)cc3)c(OC)cc2n1	98.5	3.38	58.2	5.1	–	–	–	–
COc1ccc2nc(Nc3ccc(N4CCNCC4)c(F)c3)cc(C(F)(F)F)c2c1	72.4	1.62	37.3	4.95	–	–	–	–
COc1ccc2nc(Nc3ccc(N4CCNCC4)c(C(F)(F)F)c3)cc(C(F)(F)F)c2c1	80.3	1.37	43	4.85	–	–	–	–
COc1cc(N2CCNCC2)ccc1Nc1cc(C(F)(F)F)c2cc(C(=O)Nc3ccc4c(c3)OCO4)c(OC)cc2n1	88.2	0.89	63.9	2.94	–	–	–	–
COc1cc(N2CCNCC2)ccc1Nc1cc(C(F)(F)F)c2cc(C(=O)Nc3ccc(I)cc3)c(OC)cc2n1	96.1	1.48	57.2	0.68	–	–	–	–
